test system: INS-1E rat beta cells, no cytokines, CellTiter-Glo ATP, 48 h; test: ATP level change in INS-1E without cytokines, dose response, counter-screen for beta-cell apoptosis protection project, INS-1E rat cells, ATP luminescence, cherry pick (AID 463229)

Point of comparison: CC(=O)NC(c1cc(Cl)c2cccnc2c1O)C1CC1 (configuration not stated), AC50 7.49 µM. Against it:
- Cc1ccc(-c2cn(-c3ccc(OC(F)F)cc3)c3[n+]2CCCCC3)cc1 — 5.2-fold lower, 1.45 µM
- CCC(=O)NC(c1ccc(C)cc1)c1cc(Cl)c2cccnc2c1O (configuration not stated) — within 1.5-fold, 7.97 µM
- CS(=O)(=O)N(CC(=O)Nc1ccc(CC#N)cc1)c1ccc(C23CC4CC(CC(C4)C2)C3)cc1 — within 1.5-fold, 7.41 µM
- O=C(CNc1cccc2ccccc12)N/N=C/c1ccc([N+](=O)[O-])o1 — 1.5-fold higher, 11.5 µM
- COc1ccc(C2=NNC(=Nc3cc(S(=O)(=O)N(C)C)ccc3C)SC2)c(OC)c1 — 2.4-fold lower, 3.06 µM
- CCN(CC)C(=O)c1ccc(S(=O)(=O)N2CCC(c3nc4ccccc4s3)CC2)cc1 — within 1.5-fold, 7.7 µM
- Cc1c(N/N=C(\C#N)C(=O)c2ccc(Cl)cc2)c(=O)n(-c2ccccc2)n1C — within 1.5-fold, 5.35 µM
- Clc1cc2cccnc2c2ncccc12 — 2-fold higher, 15 µM
- CCOC(=O)/C(=C\c1ccc(OC(F)F)cc1)C1=Nn2c(nnc2-c2ccc(Cl)cc2)SC1 — within 1.5-fold, 5.5 µM
- CC(=O)NC(c1cc(Cl)c2cccnc2c1O)C(C)C (configuration not stated) — within 1.5-fold, 8.18 µM
- CCN(CC)CCC(=O)Nc1cccc2c1C(=O)c1ccccc1C2=O — 1.6-fold higher, 12 µM
- c1ccc(-c2nnc(-c3ccccn3)nc2NC2CCCCC2)cc1 — 2.1-fold lower, 3.52 µM
- CN(C)c1ccc(-c2cc(O)c3ncccc3c2)cc1 — 3.6-fold higher, 26.9 µM
- COc1ccc(NC(=O)c2c(Nc3ccccc3)sc(C(=O)c3ccc(F)cc3)c2N)cc1 — 2.6-fold lower, 2.91 µM
- COc1cc(C)c(C(=O)CC(=O)c2c(C)cc(OC)cc2C)c(C)c1 — 1.8-fold higher, 13.7 µM
- COc1ccc(/C=N/NC(=O)c2nc(-c3ccccc3)n(-c3ccccc3)n2)c(O)c1 — 1.7-fold lower, 4.37 µM
- Cc1ccc(NC(=O)c2cc(S(=O)(=O)NCCC3=CCCCC3)ccc2F)cc1F — within 1.5-fold, 6.58 µM
- O=C(Nc1ccc(Cl)cc1)Nc1ccc(N2CCCC2)c(S(=O)(=O)Nc2ccccc2Cl)c1 — within 1.5-fold, 7.12 µM
- Cc1ccc(S(=O)(=O)Nc2ccccc2C(=O)Nc2nc(-c3ccc(F)cc3)cs2)cc1 — 2.6-fold lower, 2.92 µM
- CCCCCCc1cc2cc(C(=O)Nc3cccc(OC)c3)c(=O)oc2cc1O — 1.7-fold lower, 4.41 µM
- Nc1nonc1-n1nnc(C(=O)N/N=C/c2cc(Br)ccc2O)c1CSC1=NCCS1 — 2.1-fold lower, 3.58 µM
- COc1cccc(CNCCc2c[nH]c3ccccc23)c1OCc1ccccc1F — within 1.5-fold, 7 µM
- Cc1ccc(C(C)C)c(OCc2ccc(C(=O)N/N=C/c3ccc(O)cc3O)cc2)c1 — 1.9-fold lower, 3.99 µM
- COC(=O)c1ccc(NC(=O)c2nc(S(=O)(=O)Cc3cccc(C)c3)ncc2Cl)cc1 — within 1.5-fold, 10.8 µM
- Cn1nc(CC(=O)Nc2ccc3c(c2)OCCO3)c2ccccc2c1=O — within 1.5-fold, 5.63 µM
- C=C1C(=O)O[C@@H]2C[C@@H](C)[C@@H]3C4OC4C(=O)[C@@]3(C)[C@@H](O)[C@H]12 (some centres not stated) — within 1.5-fold, 7.57 µM
- CC1=NNC(=O)/C1=C\c1cn(-c2ccccc2)nc1-c1ccccc1 — within 1.5-fold, 7.57 µM
- O=C(CN1CCOCC1)N/N=C/c1c(O)ccc2ccccc12 — 2.1-fold higher, 16.1 µM
- Cc1ccc2nc(NNC(=O)c3ccc(S(=O)(=O)N4CCc5ccccc5C4)cc3)sc2c1 — 1.8-fold lower, 4.18 µM
- COc1ccccc1N1CCN(Cc2cc(Br)c(O)c3ncccc23)CC1 — within 1.5-fold, 5.72 µM
- CCO[C@H]1OC(C(=O)N2CCN(Cc3ccc4c(c3)OCO4)CC2)=C[C@@H](c2csc3ccccc23)[C@@H]1CCCO — within 1.5-fold, 6.01 µM
